The assay relates to R32tet32 antigen. The experiment in a line: immunogenicity in mice: anti-R32tet32 (anti-repeat) antibody titer by ELISA. Format: in vivo, Balb/C mice. As to conditions: effect of 3D-MPL (50 µg/dose) added to (RTS,S) on A1(OH)3. In general terms: An ELISA detects its analyte on a solid surface through an enzyme-linked reagent.

The values below come from EP0614465B1, “HYBRID PROTEIN BETWEEN CS FROM […] HBsAG” (SMITHKLINE BEECHAM BIOLOGICALS S.A., priority 1991, dated 1993).

As to “3 Deacylated monophosphoryl lipid A [3D-MPL]”, the “primary antibody response in mice” value is “enhanced”.
